Experimental data from patent publication US12018023B2 (NERVIANO MEDICAL SCIENCES S.R.L., priority 2018, dated 2024).

Key:
Format in all cases: biochemical
[1] = biological target: T1, IDH2^R172K (Homo sapiens, UniProt P48735, R172K); experiment: NADPH depletion assay, IDH2 R172K
T1 construct: purchased not specified
T1 sequence (P48735 40-452 R172K): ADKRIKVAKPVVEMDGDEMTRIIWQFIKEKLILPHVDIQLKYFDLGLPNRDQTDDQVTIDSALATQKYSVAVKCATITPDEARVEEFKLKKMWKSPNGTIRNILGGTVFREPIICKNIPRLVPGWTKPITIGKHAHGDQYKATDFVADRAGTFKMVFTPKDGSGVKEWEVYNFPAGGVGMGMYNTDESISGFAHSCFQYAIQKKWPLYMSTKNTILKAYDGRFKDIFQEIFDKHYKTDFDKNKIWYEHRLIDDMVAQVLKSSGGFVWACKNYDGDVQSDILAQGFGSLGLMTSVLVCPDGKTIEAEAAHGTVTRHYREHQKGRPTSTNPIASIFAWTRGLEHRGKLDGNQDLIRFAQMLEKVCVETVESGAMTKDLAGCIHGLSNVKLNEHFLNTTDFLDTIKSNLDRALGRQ
Method: IDH mutated enzyme activity converting alpha-ketoglutarate to 2-hydroxyglutaric acid is measured using a NADPH depletion assay. In the assay the remaining cofactor is measured at the end of the reaction with the addition of a catalytic excess of diaphorase and resazurin, to generate a fluorescent signal in proportion to the amount of NADPH remaining. IDH1 WT enzyme as well as mutated isoforms IDH1^R132H, IDH1^R132C, and IDH^2R172K enzymes are commercially available proteins (see e.g. Sino Biological, Abcam, Active Motif or Creative BioMart).
IDH1^R132H homodimer enzyme are diluted to 8 nM, in 10 μL of Assay Buffer (150 mM NaCl, 50 mM Tris-HCl pH 7.6, 10 mM MgCl2, 0.001% Triton X-100, 4 mM β-mercaptoethanol); 0.2 uL of test compound, previously serially diluted 1 to 3, >10 experimental points from 1 mM in DMSO, is added and the mixture is incubated for 15 minutes at room temperature. The reaction is started with the addition of 10 μL of Substrate Mix (12 uM NADPH, 3.4 mM alpha-ketoglutarate in Assay Buffer) and the mixture is incubated for 60 minutes at room temperature. The reaction is terminated with the addition of 5 μl of Detection Buffer (100 μg/mL diaphorase, 30 μM resazurin, in IX Assay Buffer), and is incubated for 15 minute before reading on a ViewLux as platereader at Ex544/Em590.
Compounds are assayed for their activity against IDH2^R172K following the same assay as above with the following modifications: IDH2^R172K and alpha-ketoglutarate final concentrations in the Assay Buffer is 16 nM and 0.55 mM, respectively.

[2] = biological target: T2, IDH1^R132H homodimer enzyme (Homo sapiens, UniProt O75874, R132H); experiment: NADPH depletion assay, IDH1 R132H
T2 construct: purchased not specified
T2 sequence (O75874 whole entry R132H): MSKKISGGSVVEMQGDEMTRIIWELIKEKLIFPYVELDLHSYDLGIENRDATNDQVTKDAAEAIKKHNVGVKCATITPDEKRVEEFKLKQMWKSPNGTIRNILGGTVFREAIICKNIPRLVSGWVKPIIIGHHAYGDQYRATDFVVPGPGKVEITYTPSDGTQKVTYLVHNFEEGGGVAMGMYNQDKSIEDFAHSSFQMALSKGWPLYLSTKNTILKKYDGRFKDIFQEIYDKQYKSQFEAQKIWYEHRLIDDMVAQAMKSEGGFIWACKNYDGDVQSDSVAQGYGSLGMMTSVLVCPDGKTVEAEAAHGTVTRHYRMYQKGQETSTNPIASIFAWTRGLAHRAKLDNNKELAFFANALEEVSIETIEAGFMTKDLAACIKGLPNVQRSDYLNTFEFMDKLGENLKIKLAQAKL
Summary of the method: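 IDH1 R132H enzyme (8 nM as diluted) in Tris-HCl pH 7.6 with 10 mM MgCl2, 0.001% Triton X-100 and 4 mM β-mercaptoethanol is preincubated 15 min at RT with compound. Substrate mix (12 uM NADPH, 3.4 mM α-ketoglutarate) is added for 60 min; remaining NAD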

[3] = biological target: T3, IDH1^R132C (Homo sapiens, UniProt O75874, R132C); experiment: NADPH depletion assay, IDH1 R132C
T3 construct: purchased not specified
T3 sequence (O75874 whole entry R132C): as the sequence (O75874 whole entry R132H) above, with H132C counted along it
Summary of the method: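 IDH1 R132C (2 nM) preincubated 15 min at RT with compound in Tris-HCl pH 7.6/MgCl2 buffer, then 60 min RT with NADPH and 0.14 mM alpha-ketoglutarate. Remaining NADPH read by diaphorase/resazurin fluorescence (Ex544/Em590).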

Row | Structure (SMILES) | IC50 [1] [nM] | IC50 [2] [nM] | IC50 [3] [nM]
1 | C[C@H](Nc1ncc2ccc(=O)n(Cc3cccc(C(F)(F)F)c3)c2n1)c1ccc(Cl)cc1 [cpd 24, 2-{[(1S)-1-(4-chlorophenyl)ethyl]amino}-8-[3-(trifluoromethyl)benzyl]pyrido[2,3-d]pyrimidin-7(8H)-one] | 2960 | 3530 | 1720
2 | C[C@H](Nc1ncc2ccc(=O)n(Cc3ccc(OC(F)(F)F)cc3)c2n1)c1ccc(Cl)cc1 [cpd 26, 2-{[(1S)-1-(4-chlorophenyl)ethyl]amino}-8-[4-(trifluoromethoxy)benzyl]pyrido[2,3-d]pyrimidin-7(8H)-one] | 2200 | 2360 | 1260
3 | C[C@H](Nc1ncc2ccc(=O)n(Cc3ccc(C#N)cc3)c2n1)c1ccc(Cl)cc1 [cpd 27, 4-{[2-{[(1S)-1-(4-chlorophenyl)ethyl]amino}-7-oxopyrido[2,3-d]pyrimidin-8(7H)-yl]methyl}benzonitrile] | 2600 | 1070 | 336
4 | C[C@H](Nc1ncc2ccc(=O)n(Cc3ccc(F)cc3)c2n1)c1ccc(Cl)cc1 [cpd 28, 2-{[(1S)-1-(4-chlorophenyl)ethyl]amino}-8-(4-fluorobenzyl)pyrido[2,3-d]pyrimidin-7(8H)-one] | 2510 | 1480 | 590
5 | COc1cccc(Cn2c(=O)ccc3cnc(N[C@@H](C)c4ccc(Cl)cc4)nc32)c1 [cpd 30, 2-{[(1S)-1-(4-chlorophenyl)ethyl]amino}-8-(3-methoxybenzyl)pyrido[2,3-d]pyrimidin-7(8H)-one] | 2520 | 1340 | 406
6 | C[C@H](Nc1ncc2ccc(=O)n(Cc3c(F)cccc3F)c2n1)c1ccc(Cl)cc1 [cpd 31, 2-{[(1S)-1-(4-chlorophenyl)ethyl]amino}-8-(2,6-difluorobenzyl)pyrido[2,3-d]pyrimidin-7(8H)-one] | 2200 | 323 | 147
7 | C[C@H](Nc1ncc2ccc(=O)n(CC(C)(C)C)c2n1)c1ccc(Br)cc1 [cpd 34, 2-{[(1S)-1-(4-bromophenyl)ethyl]amino}-8-(2,2-dimethylpropyl)pyrido[2,3-d]pyrimidin-7(8H)-one] | 3350 | 219 | 135
8 | COC(=O)C(C)(C)Cn1c(=O)ccc2cnc(N[C@@H](C)c3ccc4ccccc4c3)nc21 [cpd 37, methyl 2,2-dimethyl-3-[2-{[(1S)-1-(naphthalen-2-yl)ethyl]amino}-7-oxopyrido[2,3-d]pyrimidin-8(7H)-yl]propanoate] | 4850 | 1480 | 805
9 | CCC(C)n1c(=O)ccc2cnc(N[C@@H](C)c3ccc(CN4CCCC(F)(F)C4)cc3)nc21 (stereo partly drawn) [cpd 61, 8-(butan-2-yl)-2-{[(1S)-1-{4-[(3,3-difluoropiperidin-1-yl)methyl]phenyl}ethyl]amino}pyrido[2,3-d]pyrimidin-7(8H)-one] | 5020 | 71 | 38
10 | C[C@H](Nc1ncc2ccc(=O)n(Cc3cccc(O)c3)c2n1)c1ccc(Cl)cc1 [cpd 71, 2-{[(1S)-1-(4-chlorophenyl)ethyl]amino}-8-(3-hydroxybenzyl)pyrido[2,3-d]pyrimidin-7(8H)-one] | 4830 | 2480 | 964
11 | CC(C)Cn1c(=O)ccc2cnc(N[C@@H](C)c3ccc(CN4CCC(F)(F)CC4)cc3)nc21 [cpd 95, 2-{[(1S)-1-{4-[(4,4-difluoropiperidin-1-yl)methyl]phenyl}ethyl]amino}-8-(2-methylpropyl)pyrido[2,3-d]pyrimidin-7(8H)-one] | 5160 | 425 | 162
12 | CC(Nc1ncc2ccc(=O)n(Cc3ccccc3)c2n1)c1ccc(CN2CCC(F)(F)CC2)cc1 (stereo not drawn) [cpd 96, 8-benzyl-2-[(1-{4-[(4,4-difluoropiperidin-1-yl)methyl]phenyl}ethyl)amino]pyrido[2,3-d]pyrimidin-7(8H)-one] | 5020 | 801 | 420
13 | CC(Nc1ncc2ccc(=O)n(Cc3ccccc3F)c2n1)c1ccc(CN2CCC(F)(F)CC2)cc1 (stereo not drawn) [cpd 97, 2-[(1-{4-[(4,4-difluoropiperidin-1-yl)methyl]phenyl}ethyl)amino]-8-(2-fluorobenzyl)pyrido[2,3-d]pyrimidin-7(8H)-one] | 5030 | 524 | 323
14 | CC(Nc1ncc2ccc(=O)n(Cc3c(F)cccc3F)c2n1)c1ccc(CN2CCC(F)(F)CC2)cc1 (stereo not drawn) [cpd 98, 8-(2,6-difluorobenzyl)-2-[(1-{4-[(4,4-difluoropiperidin-1-yl)methyl]phenyl}ethyl)amino]pyrido[2,3-d]pyrimidin-7(8H)-one] | 5340 | 366 | 217
15 | CCCn1c(=O)ccc2cnc(N[C@@H](C)c3ccc(CN4CCC(F)(F)CC4)cc3)nc21 [cpd 101, 2-{[(1S)-1-{4-[(4,4-difluoropiperidin-1-yl)methyl]phenyl}ethyl]amino}-8-propylpyrido[2,3-d]pyrimidin-7(8H)-one] | 2670 | 575 | 271
16 | C[C@H](Nc1ncc2ccc(=O)n(CC(F)(F)F)c2n1)c1ccc(CN2CCC(F)(F)CC2)cc1 [cpd 106, 2-{[(1S)-1-{4-[(4,4-difluoropiperidin-1-yl)methyl]phenyl)ethyl]amino)-8-(2,2,2-trifluoroethyl)pyrido[2,3-d]pyrimidin-7(8H)-one] | 2910 | 1230 | 667
17 | C[C@H](Nc1ncc2ccc(=O)n(CC(C)(C)C)c2n1)c1ccc(-c2ccsc2)cc1 [cpd 133, 8-(2,2-dimethylpropyl)-2-({(1S)-1-[4-(thiophen-3-yl)phenyl]ethyl}amino)pyrido[2,3-d]pyrimidin-7(8H)-one] | 5050 | 218 | 141
18 | CC(C)[C@H](C)n1c(=O)ccc2cnc(N[C@@H](C)c3ccc(OC4CCN(C(=O)OCc5ccccc5)CC4)cc3)nc21 [cpd 146, 4-(4-{(S)-1-[8-((S)-1,2-Dimethyl-propyl)-7-oxo-7,8-dihydro-pyrido[2,3-d]pyrimidin-2-ylamino]-ethyl}-phenoxy)-piperidine-1-carboxylic acid benzyl ester] | 1420 | 59 | 16
19 | C[C@H](Nc1ncc2ccc(=O)n(CC(C)(C)C)c2n1)c1ccc(CN2CCC(F)(F)C2)cc1 [cpd 148, 2-{[(1S)-1-{4-[(3,3-difluoropyrrolidin-1-yl)methyl]phenyl}ethyl]amino}-8-(2,2-dimethylpropyl)pyrido[2,3-d]pyrimidin-7(8H)-one] | 5830 | 187 | 109
20 | CC[C@@H](C)n1c(=O)ccc2cnc(N[C@@H](C)c3ccc(CN4CCCC(F)(F)C4)cc3)nc21 [cpd 149, 8-[(2R)-butan-2-yl]-2-{[(1S)-1-{4-[(3,3-difluoropiperidin-1-yl)methyl]phenyl}ethyl]amino}pyrido[2,3-d]pyrimidin-7(8H)-one] | 3330 | 85 | 48
21 | C[C@H](Nc1ncc2ccc(=O)n(CC(C)(C)C)c2n1)c1ccc(CN2CCC(F)(F)CC2)cc1F [cpd 152, 2-{[(1S)-1-{4-[(4,4-difluoropiperidin-1-yl)methyl]-2-fluorophenyl}ethyl]amino}-8-(2,2-dimethylpropyl)pyrido [2,3-d]pyrimidin-7(8H)-one] | 5620 | 158 | 65
